Laboratory results taken from ChEMBL document CHEMBL4038308, “Lipophosphonoxins II: Design, Synthesis, and Properties of Novel Broad Spectrum Antibacterial Agents” (J Med Chem, 2017).
Values after ≈ are worked out from the molar mass of the structure shown.

Tests used:
Pseudomonas aeruginosa [1] = assay: Antibacterial activity against Pseudomonas aeruginosa CCM 3955 after 24 hrs by microdilution method; assay type: functional; settings: CCM 3955, 24 h
Streptococcus agalactiae = assay: Antibacterial activity against Streptococcus agalactiae after 24 hrs by microdilution method; assay type: functional
Bacillus subtilis = assay: Antibacterial activity against Bacillus subtilis after 24 hrs by microdilution method; assay type: functional
[2] = system: Stenotrophomonas maltophilia; assay: Antibacterial activity against Stenotrophomonas maltophilia S2-23 after 24 hrs by microdilution method; assay type: functional; settings: S2-23, 24 h
[3] = system: Staphylococcus haemolyticus; assay: Antibacterial activity against fluoroquinolne-resistant Staphylococcus haemolyticus 16568 after 24 hrs by microdilution method; assay type: functional; settings: Staphylococcus haemolyticus, 16568, 24 h
Escherichia coli [4] = assay: Antibacterial activity against Escherichia coli 16702 after 24 hrs by microdilution method; assay type: functional; settings: Escherichia coli, 16702, 24 h
Burkholderia multivorans = assay: Antibacterial activity against Burkholderia multivorans after 24 hrs by microdilution method; assay type: functional
Enterococcus faecalis = assay: Antibacterial activity against Enterococcus faecalis CCM 4224 after 24 hrs by microdilution method; assay type: functional; settings: CCM 4224, 24 h
Staphylococcus aureus [5] = assay: Antibacterial activity against Staphylococcus aureus CCM 4223 after 24 hrs by microdilution method; assay type: functional; settings: CCM 4223, 24 h
Escherichia coli [6] = assay: Antibacterial activity against Escherichia coli CCM 3954 after 24 hrs by microdilution method; assay type: functional; settings: CCM 3954, 24 h
Salmonella enteritidis = assay: Antibacterial activity against Salmonella enteritidis S2-25 after 24 hrs by microdilution method; assay type: functional, Salmonella enterica subsp. enterica serovar Enteritidis; settings: Salmonella enterica, S2-25, 24 h
Staphylococcus aureus [7] = assay: Antibacterial activity against methicillin-resistant Staphylococcus aureus 4591 clinical isolates after 24 hrs by microdilution method; assay type: functional; settings: Staphylococcus aureus, 4591, 24 h
Pseudomonas aeruginosa [8] = assay: Antibacterial activity against Pseudomonas aeruginosa 16575 after 24 hrs by microdilution method; assay type: functional; settings: Pseudomonas aeruginosa, 16575, 24 h
Acinetobacter baumannii = assay: Antibacterial activity against Acinetobacter baumannii A3-08 after 24 hrs by microdilution method; assay type: functional; settings: A3-08, 24 h
Enterococcus faecium = assay: Antibacterial activity against vancomycin-resistant Enterococcus faecium 419/ana clinical isolates after 24 hrs by microdilution method; assay type: functional
[9] = system: Staphylococcus epidermidis; assay: Antibacterial activity against Staphylococcus epidermidis 8700/B after 24 hrs by microdilution method; assay type: functional

Question: For `CCCCCCCCCCCCCCCCOP(=O)(CCN(CCCN)CCCN)OC[C@H]1O[C@@H](n2ccc(=O)[nH]c2=O)[C@H](O)[C@@H]1O` (some centres not stated), which MIC (Pseudomonas aeruginosa [1]) is on record?
Answer: 6.25 µg/mL (≈ 9.06 µM)

Question: And the MIC (Streptococcus agalactiae)?
Answer: 3.13 µg/mL (≈ 4.54 µM)

Question: And the MIC (Bacillus subtilis)?
Answer: 0.78 µg/mL (≈ 1.13 µM)

Question: What about the MIC [2] of the same molecule?
Answer: 3.13 µg/mL (≈ 4.54 µM)

Question: And the MIC [3]?
Answer: 3.13 µg/mL (≈ 4.54 µM)

Question: What about the MIC (Escherichia coli [4]) of the same molecule?
Answer: 3.13 µg/mL (≈ 4.54 µM)

Question: And the MIC (Burkholderia multivorans)?
Answer: 50 µg/mL (≈ 72.5 µM)

Question: What about the MIC (Enterococcus faecalis) of the same molecule?
Answer: 50 µg/mL (≈ 72.5 µM)

Question: And the MIC (Staphylococcus aureus [5])?
Answer: 12.5 µg/mL (≈ 18.1 µM)

Question: What about the MIC (Escherichia coli [6]) of the same molecule?
Answer: 3.13 µg/mL (≈ 4.54 µM)

Question: What about the MIC (Salmonella enteritidis) of the same molecule?
Answer: 3.13 µg/mL (≈ 4.54 µM)

Question: And the MIC (Staphylococcus aureus [7])?
Answer: 25 µg/mL (≈ 36.2 µM)

Question: And the MIC (Pseudomonas aeruginosa [8])?
Answer: 3.13 µg/mL (≈ 4.54 µM)

Question: And the MIC (Acinetobacter baumannii)?
Answer: 3.13 µg/mL (≈ 4.54 µM)

Question: And the MIC (Enterococcus faecium)?
Answer: 25 µg/mL (≈ 36.2 µM)

Question: What about the MIC [9] of the same molecule?
Answer: 3.13 µg/mL (≈ 4.54 µM)

Question: What does the source list for `CCCCCCCCCCCCCCOP(=O)(CCN(CCN)CCN)OC[C@H]1O[C@@H](n2ccc(=O)[nH]c2=O)[C@H](O)[C@@H]1O` (some centres not stated)?
Answer: MIC (Pseudomonas aeruginosa [1]): 3.13 µg/mL (≈ 4.94 µM); MIC (Streptococcus agalactiae): 6.25 µg/mL (≈ 9.86 µM); MIC (Bacillus subtilis): 6.25 µg/mL (≈ 9.86 µM); MIC [2]: 6.25 µg/mL (≈ 9.86 µM); MIC [3]: 3.13 µg/mL (≈ 4.94 µM); MIC (Escherichia coli [4]): 6.25 µg/mL (≈ 9.86 µM); MIC (Burkholderia multivorans): 12.5 µg/mL (≈ 19.7 µM); MIC (Enterococcus faecalis): 100 µg/mL (≈ 158 µM); MIC (Staphylococcus aureus [5]): 25 µg/mL (≈ 39.4 µM); MIC (Escherichia coli [6]): 12.5 µg/mL (≈ 19.7 µM); MIC (Salmonella enteritidis): 12.5 µg/mL (≈ 19.7 µM); MIC (Staphylococcus aureus [7]): 12.5 µg/mL (≈ 19.7 µM); MIC (Pseudomonas aeruginosa [8]): 6.25 µg/mL (≈ 9.86 µM); MIC (Acinetobacter baumannii): 25 µg/mL (≈ 39.4 µM); MIC (Enterococcus faecium): 100 µg/mL (≈ 158 µM); MIC [9]: 3.13 µg/mL (≈ 4.94 µM)

Question: `CCCCCCCCCCCCCCCCOP(=O)(CCN(CCCNC(=N)N)CCCNC(=N)N)OC[C@H]1O[C@@H](n2ccc(=O)[nH]c2=O)[C@H](O)[C@@H]1O` (some centres not stated) was tested. Which MIC (Pseudomonas aeruginosa [1]) did it give?
Answer: 3.13 µg/mL (≈ 4.04 µM)

Question: And the MIC (Streptococcus agalactiae)?
Answer: 1.56 µg/mL (≈ 2.02 µM)

Question: What about the MIC (Bacillus subtilis) of the same molecule?
Answer: 0.78 µg/mL (≈ 1.01 µM)

Question: What about the MIC [2] of the same molecule?
Answer: 1.56 µg/mL (≈ 2.02 µM)

Question: And the MIC [3]?
Answer: 1.56 µg/mL (≈ 2.02 µM)

Question: And the MIC (Escherichia coli [4])?
Answer: 1.56 µg/mL (≈ 2.02 µM)

Question: And the MIC (Burkholderia multivorans)?
Answer: 50 µg/mL (≈ 64.6 µM)

Question: What about the MIC (Enterococcus faecalis) of the same molecule?
Answer: 6.25 µg/mL (≈ 8.08 µM)

Question: What about the MIC (Staphylococcus aureus [5]) of the same molecule?
Answer: 3.13 µg/mL (≈ 4.04 µM)

Question: And the MIC (Escherichia coli [6])?
Answer: 1.56 µg/mL (≈ 2.02 µM)

Question: What about the MIC (Salmonella enteritidis) of the same molecule?
Answer: 1.56 µg/mL (≈ 2.02 µM)

Question: What about the MIC (Staphylococcus aureus [7]) of the same molecule?
Answer: 3.13 µg/mL (≈ 4.04 µM)

Question: And the MIC (Pseudomonas aeruginosa [8])?
Answer: 3.13 µg/mL (≈ 4.04 µM)

Question: What about the MIC (Acinetobacter baumannii) of the same molecule?
Answer: 3.13 µg/mL (≈ 4.04 µM)

Question: And the MIC (Enterococcus faecium)?
Answer: 25 µg/mL (≈ 32.3 µM)

Question: What about the MIC [9] of the same molecule?
Answer: 1.56 µg/mL (≈ 2.02 µM)

Question: Which results are given for `CCCCCCCCCCCCCOP(=O)(CCN(CCCN)CCCN)OC[C@H]1O[C@@H](n2ccc(=O)[nH]c2=O)[C@H](O)[C@@H]1O` (some centres not stated)?
Answer: MIC (Pseudomonas aeruginosa [1]): 3.13 µg/mL (≈ 4.83 µM); MIC (Streptococcus agalactiae): 6.25 µg/mL (≈ 9.65 µM); MIC (Bacillus subtilis): 3.13 µg/mL (≈ 4.83 µM); MIC [2]: 50 µg/mL (≈ 77.2 µM); MIC [3]: 6.25 µg/mL (≈ 9.65 µM); MIC (Escherichia coli [4]): 50 µg/mL (≈ 77.2 µM); MIC (Burkholderia multivorans): 50 µg/mL (≈ 77.2 µM); MIC (Enterococcus faecalis): 50 µg/mL (≈ 77.2 µM); MIC (Staphylococcus aureus [5]): 12.5 µg/mL (≈ 19.3 µM); MIC (Escherichia coli [6]): 25 µg/mL (≈ 38.6 µM); MIC (Salmonella enteritidis): 50 µg/mL (≈ 77.2 µM); MIC (Staphylococcus aureus [7]): 25 µg/mL (≈ 38.6 µM); MIC (Pseudomonas aeruginosa [8]): 25 µg/mL (≈ 38.6 µM); MIC (Acinetobacter baumannii): 50 µg/mL (≈ 77.2 µM); MIC (Enterococcus faecium): 100 µg/mL (≈ 154 µM); MIC [9]: 12.5 µg/mL (≈ 19.3 µM)

Question: What does the source list for `CCCCCCCCCCCCCCCCOP(=O)(CCN(CCNC(=N)N)CCNC(=N)N)OC[C@H]1O[C@@H](n2ccc(=O)[nH]c2=O)[C@H](O)[C@@H]1O` (some centres not stated)?
Answer: MIC (Pseudomonas aeruginosa [1]): 6.25 µg/mL (≈ 8.38 µM); MIC (Streptococcus agalactiae): 3.13 µg/mL (≈ 4.2 µM); MIC (Bacillus subtilis): 3.13 µg/mL (≈ 4.2 µM); MIC [2]: 3.13 µg/mL (≈ 4.2 µM); MIC [3]: 6.25 µg/mL (≈ 8.38 µM); MIC (Escherichia coli [4]): 3.13 µg/mL (≈ 4.2 µM); MIC (Burkholderia multivorans): 25 µg/mL (≈ 33.5 µM); MIC (Enterococcus faecalis): 25 µg/mL (≈ 33.5 µM); MIC (Staphylococcus aureus [5]): 6.25 µg/mL (≈ 8.38 µM); MIC (Escherichia coli [6]): 3.13 µg/mL (≈ 4.2 µM); MIC (Salmonella enteritidis): 3.13 µg/mL (≈ 4.2 µM); MIC (Staphylococcus aureus [7]): 6.25 µg/mL (≈ 8.38 µM); MIC (Pseudomonas aeruginosa [8]): 6.25 µg/mL (≈ 8.38 µM); MIC (Acinetobacter baumannii): 6.25 µg/mL (≈ 8.38 µM); MIC (Enterococcus faecium): 50 µg/mL (≈ 67 µM); MIC [9]: 3.13 µg/mL (≈ 4.2 µM)

Question: With `CCCCCCCCCCCCCCCOP(=O)(CCN1C[C@@H](O)[C@@H](N)C1)OC[C@H]1O[C@@H](n2ccc(=O)[nH]c2=O)[C@H](O)[C@@H]1O` (some centres not stated) as the molecule, how does the MIC (Pseudomonas aeruginosa [1]) read?
Answer: 25 µg/mL (≈ 38.7 µM)

Question: And the MIC (Streptococcus agalactiae)?
Answer: 3.13 µg/mL (≈ 4.84 µM)

Question: And the MIC (Bacillus subtilis)?
Answer: 6.25 µg/mL (≈ 9.66 µM)

Question: And the MIC [2]?
Answer: 6.25 µg/mL (≈ 9.66 µM)

Question: What about the MIC [3] of the same molecule?
Answer: 12.5 µg/mL (≈ 19.3 µM)

Question: What about the MIC (Escherichia coli [4]) of the same molecule?
Answer: 6.25 µg/mL (≈ 9.66 µM)

Question: And the MIC (Burkholderia multivorans)?
Answer: > 200 µg/mL

Question: And the MIC (Enterococcus faecalis)?
Answer: 12.5 µg/mL (≈ 19.3 µM)

Question: What about the MIC (Staphylococcus aureus [5]) of the same molecule?
Answer: 12.5 µg/mL (≈ 19.3 µM)

Question: And the MIC (Escherichia coli [6])?
Answer: 6.25 µg/mL (≈ 9.66 µM)

Question: And the MIC (Salmonella enteritidis)?
Answer: 6.25 µg/mL (≈ 9.66 µM)

Question: What about the MIC (Staphylococcus aureus [7]) of the same molecule?
Answer: 25 µg/mL (≈ 38.7 µM)

Question: What about the MIC (Pseudomonas aeruginosa [8]) of the same molecule?
Answer: 12.5 µg/mL (≈ 19.3 µM)

Question: What about the MIC (Acinetobacter baumannii) of the same molecule?
Answer: 6.25 µg/mL (≈ 9.66 µM)

Question: What about the MIC (Enterococcus faecium) of the same molecule?
Answer: 50 µg/mL (≈ 77.3 µM)

Question: What about the MIC [9] of the same molecule?
Answer: 6.25 µg/mL (≈ 9.66 µM)

Question: Which results are given for `CCCCCCCCCCCCCCCCOP(=O)(CCN(CCN)CCN)OC[C@H]1O[C@@H](n2ccc(=O)[nH]c2=O)[C@H](O)[C@@H]1O` (some centres not stated)?
Answer: MIC (Pseudomonas aeruginosa [1]): 3.13 µg/mL (≈ 4.73 µM); MIC (Streptococcus agalactiae): 1.56 µg/mL (≈ 2.36 µM); MIC (Bacillus subtilis): 1.56 µg/mL (≈ 2.36 µM); MIC [2]: 1.56 µg/mL (≈ 2.36 µM); MIC [3]: 3.13 µg/mL (≈ 4.73 µM); MIC (Escherichia coli [4]): 3.13 µg/mL (≈ 4.73 µM); MIC (Burkholderia multivorans): 25 µg/mL (≈ 37.8 µM); MIC (Enterococcus faecalis): 12.5 µg/mL (≈ 18.9 µM); MIC (Staphylococcus aureus [5]): 6.25 µg/mL (≈ 9.44 µM); MIC (Escherichia coli [6]): 3.13 µg/mL (≈ 4.73 µM); MIC (Salmonella enteritidis): 3.13 µg/mL (≈ 4.73 µM); MIC (Staphylococcus aureus [7]): 6.25 µg/mL (≈ 9.44 µM); MIC (Pseudomonas aeruginosa [8]): 3.13 µg/mL (≈ 4.73 µM); MIC (Acinetobacter baumannii): 6.25 µg/mL (≈ 9.44 µM); MIC (Enterococcus faecium): 50 µg/mL (≈ 75.5 µM); MIC [9]: 3.13 µg/mL (≈ 4.73 µM)
